Test results taken from patent publication US6872562B2, “Herbicide resistant dinitrogen fixing bacteria and method of use” (priority 2001, dated 2005).

Tests used:
Strains USDA 123 and 138 = conditions: 5 mM concentration; cited from earlier work
Wild type USDA 110 = assay: Growth in Tulley's media with 5 mM glyphosate, wild type (Example 7); type: cell-based, Bradyrhizobium japonicum
Description: Duplicate cultures were evaluated from each of the original colony selections. […] The cultures were allowed to grow for 14 days, and then the OD of each culture was measured.

[1] = test system: GR soybean cultivar Terral TV5866RR; assay: Greenhouse Example 1: biomass, nitrogen content and nodules of TV5866RR after postemergence glyphosate; type: in vivo, soybean (Glycine max); conditions: for Nodules per plant Run 1 / Individual nodule mass Run 2 / Nodules per plant Run 2 / Individual nodule mass Run 1: Harvest 2 (40 DAE)
Description: Seeds were planted in 15-cm pots with an approximate soil volume of 1.9 L. The potting medium was a nitrogen-free peat/vermiculite/perlite mixture (LB2, Sun Gro Horticulture Inc., 1830 Knob Hill, Garland, Tex. 75403). Soil was saturated with deionized (DI) water and then 500 mL of full-strength, nitrogen-free nutrient solution (de Silva et al., 1996) was added prior to planting. Pots were inoculated with approximately 1×10^7 cells of B. japonicum (USDA 110) at sowing. After emergence, plants were thinned to one per pot and reinoculated with B. japonicum. Plants were well watered by adding deionized (DI) water daily, and each pot received 250 mL of nitrogen-free nutrients weekly after emergence. Day and night temperatures were approximately 30 and 24 C, respectively, and natural illumination was supplemented with 1000 W metal-halide lamps for a day length of 16 h.
Each application was as a postemergence over-the-top spray to soybean plants using a moving-nozzle spray chamber. At each harvest, plants were separated into shoots, roots, and nodules. Nodules were photocopied, and total number of nodules per plant was determined from the photocopies. Plant sections were oven dried at 65 C for 48 h, weighed, and ground to pass a 1-mm sieve. Total nitrogen was determined for shoots and root plus nodule dry matter with a Leco FP-228 Determinator (Leco Corporation, St Joseph, Mich.) by the Agriculture Services Laboratory, University of Arkansas. The experiment consisted of six replications and was repeated. Seed for Run 1 and Run 2 of the experiment were planted on 25 February and 14 April, respectively. […] Treatment means were compared using Fisher's Protected least significant difference (LSD, P≦0.05).

[2] = test system: GR soybean cultivars A5901RR and DK5961RR; assay: Field experiments at Keiser and Fayetteville, Arkansas: biomass and seed yield; type: in vivo, soybean (Glycine max)
Description: Field experiments were conducted at Fayetteville and Keiser, Ark., to evaluate the response of GR soybean cultivars to foliar applications of glyphosate under field conditions susceptible to drought stress. […] Delannay et al. (1995) reported three experiments out of 58 in which yields were less than 1500 kg ha^−1, but there was no indication as to the cause of these low yields. The Fayetteville experiment was conducted on a Pembroke silt loam (Ultic Paleudalfs) on 15-cm-high beds spaced 1 m apart. Water was applied as needed until mid-reproductive development (R5) with sprinkle irrigation. At Keiser the soil was a Sharkey silty-clay (Vertic Haplaquepts), and soybean was planted on a flat seedbed with rows 0.96 m apart. Irrigation was applied with an overhead, lateral-move system.
Experiments at both locations were a factorial of two cultivars and five herbicide treatments in a randomized complete block design with four replications. Plots were four rows wide by 9 m long. […] The seeding rate was 370,000 ha^−1 at both locations.
Herbicides were applied as a broadcast treatment, sprayed over-the-top of the canopy with a CO2-powered backpack sprayer in a volume of 93 L ha^−1. […] All herbicide treatments contained appropriate surfactants. Plants were at V1, V4, and V9 development stages at 7, 21, and 35 DAE application timings, respectively, at both locations. R2 applications were made at 45 and 48 DAE at Fayetteville and Keiser, respectively. Plots were maintained weed free by hand weeding as needed. Four replications of the non-nodulating isoline of the cultivar ‘Lee’ were included at each location as an indicator of plant-available soil nitrogen.
Samples were prepared and analyzed for total nitrogen as previously described. Seed yield was determined by harvesting 4.5 m from each of the center two rows. Average seed mass was determined from a random sample of 100 seeds. Biomass data were evaluated by comparing the means±standard errors between herbicide treatments within a cultivar and sample date. […]

[3] = test system: glyphosate resistant soybean cultivar DK5961RR inoculated with B. japonicum (USDA 110); assay: Seed-imbibed glyphosate: nodulation, growth chamber experiment; type: in vivo; conditions: glyphosate concentrations greater than 12 mM
Description: Pots 15-cm in diameter, with a total volume of 1.3 L were filled with a peat based potting mix that was saturated with a nitrogen-free nutrient solution. Six seeds from a particular glyphosate-concentration seed soak were planted in each pot and 1 ml of B. japonicum (USDA 110) containing approximately 4.24×10^6 cells was applied evenly across the surface and washed into the potting mix with 250 ml of minus N nutrients. Plants were thinned to one per pot after emergence. Day and night temperatures were approximately 30 and 24 C, respectively, and natural illumination was supplemented with 1000 W metal-halide lamps for a day length of 16 hours. […] Root nodules were scanned and images were used to determine nodule number and size as influenced by glyphosate treatment. The […] was repeated in a controlled environmental growth chamber with six replications. Growth chamber temperature was a constant 25 C and light and dark periods were 16 and 8 hours, respectively. Plants were harvested at 15 days after planting and sectioned as previously described (Example 1).

[4] = Harvest 1 (19 DAE), averaged across runs
[5] = TV5866RR, Harvest 1 (19 DAE), early treatment
[6] = TV5866RR, Harvest 1 (19 DAE), early treatment: foliar 1.68 kg ha^−1 at 5 and 12 DAE

Q: Which Inhibition (Strains USDA 123 and 138) does the source give for `O=C(O)CNCP(=O)(O)O` [glyphosate, N-(phosphonomethyl)glycine] here?
A: 100%

Q: What about the “Growth, % of USDA 110 in the absence of glyphosate” value (Wild type USDA 110; 14 days) of the same molecule?
A: 33%

Q: What about the OD600 (Wild type USDA 110; USDA 110, after 14 days) of the same molecule?
A: 0.44 b^

Q: What about the “Number of nodules per plant vs untreated” value ([1]; Harvest 1 (19 DAE)) of the same molecule?
A: no difference

Q: What about the “Nitrogen accumulation decrease in roots” value [1, 4] of the same molecule?
A: 36%

Q: And the “Nitrogen accumulation decrease in shoots” value [1, 4]?
A: 34%

Q: And the Nodule mass effect ([1]; Harvest 1, Run 2, 19 DAE)?
A: not affected

Q: What about the “Total nodule weight decrease” value ([1]; Harvest 1, Run 1) of the same molecule?
A: 34%

Q: What about the “Nodules per plant Run 1” value ([1]; Early treatment, Run 1) of the same molecule?
A: 138 number

Q: What about the “Individual nodule mass Run 2” value ([1]; Early treatment, Run 2) of the same molecule?
A: 1.70 mg nodule^−1

Q: What about the “Nodules per plant Run 2” value ([1]; Early treatment, Run 2) of the same molecule?
A: 256 number

Q: What about the “Individual nodule mass Run 1” value ([1]; Early: 1.68 kg ha^−1 on 5 and 12 DAE, Run 1) of the same molecule?
A: 2.73 mg nodule^−1

Q: And the “Nodules per plant Run 1” value ([1]; Late treatment, Run 1)?
A: 150 number

Q: And the “Individual nodule mass Run 2” value ([1]; Late treatment, Run 2)?
A: 2.00 mg nodule^−1

Q: And the “Nodules per plant Run 2” value ([1]; Late treatment, Run 2)?
A: 209 number

Q: What about the “Individual nodule mass Run 1” value ([1]; Late: 1.68 kg ha^−1 on 18, 25, and 32 DAE, Run 1) of the same molecule?
A: 2.79 mg nodule^−1

Q: What about the Root biomass effect ([1]; TV5866RR, Harvest 1) of the same molecule?
A: not decreased

Q: And the Shoot biomass decrease ([1]; TV5866RR, Harvest 1 (19 DAE))?
A: 17%

Q: What about the “Nitrogen Root” value [1, 5] of the same molecule?
A: 4.2 mg plant^−1

Q: What about the “Nitrogen Shoot” value [1, 5] of the same molecule?
A: 8.9 mg plant^−1

Q: What about the “Biomass Root” value [1, 6] of the same molecule?
A: 0.17 g plant^−1

Q: And the “Biomass Shoot” value [1, 6]?
A: 0.40 g plant^−1

Q: What about the “Biomass Nodules Run 1” value ([1]; TV5866RR, Harvest 1 (19 DAE), early treatment, Run 1) of the same molecule?
A: 0.043 g plant^−1

Q: And the “Biomass Nodules Run 2” value ([1]; TV5866RR, Harvest 1 (19 DAE), early treatment, Run 2)?
A: 0.088 g plant^−1

Q: What about the “Visual observation of plants” value ([1]; between 12 and 20 DAE) of the same molecule?
A: yellowed

Q: And the “Effect on plant mass, plant color, or plant N content” value ([1]; by 40 DAE in Run 2)?
A: no apparent effect

Q: And the Soybean seed yield ([2]; Fayetteville, A5901RR, glyphosate 1: 7 & 21 DAE)?
A: 2053a kg ha^−1

Q: And the Soybean seed yield ([2]; Fayetteville, A5901RR, glyphosate 2: 7 & 49 DAE)?
A: 2057a kg ha^−1

Q: What about the Soybean seed yield ([2]; Fayetteville, A5901RR, glyphosate 3: 21 & 35 DAE) of the same molecule?
A: 1999a kg ha^−1

Q: What about the Soybean seed yield ([2]; Fayetteville, DK5961RR, glyphosate 1: 7 & 21 DAE) of the same molecule?
A: 1854a kg ha^−1

Q: And the Soybean seed yield ([2]; Fayetteville, DK5961RR, glyphosate 2: 7 & 49 DAE)?
A: 1798a kg ha^−1

Q: What about the Soybean seed yield ([2]; Fayetteville, DK5961RR, glyphosate 3: 21 & 35 DAE) of the same molecule?
A: 1992a kg ha^−1

Q: What about the “Biomass vs untreated check” value ([2]; Keiser, A5901RR, 92 DAE) of the same molecule?
A: significantly less biomass

Q: And the Soybean seed yield ([2]; Keiser, A5901RR, glyphosate 1: 1.68 kg ha^−1 at 7 & 21 DAE)?
A: 974b kg ha^−1

Q: What about the Soybean seed yield ([2]; Keiser, A5901RR, glyphosate 2: 1.68 kg ha^−1 at 7 & 49 DAE) of the same molecule?
A: 1138ab kg ha^−1

Q: And the Soybean seed yield ([2]; Keiser, A5901RR, glyphosate 3: 1.68 kg ha^−1 at 21 & 35 DAE)?
A: 1050ab kg ha^−1

Q: What about the Yield vs check ([2]; Keiser, A5901RR, glyphosate at 7 followed by 21 DAE) of the same molecule?
A: significantly lower yield

Q: And the “Biomass vs other treatments” value ([2]; Keiser, DK5961RR, 92 DAE, glyphosate at 7 followed by 21 DAE or at 7 followed by 49 DAE)?
A: tended to be lower

Q: And the Soybean seed yield ([2]; Keiser, DK5961RR, glyphosate 1: 7 & 21 DAE)?
A: 1197ab kg ha^−1

Q: And the Soybean seed yield ([2]; Keiser, DK5961RR, glyphosate 2: 7 & 49 DAE)?
A: 989b kg ha^−1

Q: What about the Soybean seed yield ([2]; Keiser, DK5961RR, glyphosate 3: 21 & 35 DAE) of the same molecule?
A: 1291a kg ha^−1

Q: And the Yield decrease ([2]; Keiser, DK5961RR, glyphosate at 7 followed by 21 DAE)?
A: 24%

Q: What about the “Yield lower than untreated check” value ([2]; Keiser, DK5961RR, glyphosate at 7 followed by 49 DAE) of the same molecule?
A: 8%

Q: And the “Seed yields vs untreated check” value ([2]; Keiser, DK5961RR, other glyphosate and standard herbicide treatments)?
A: numerically equal to the untreated check

Q: And the Nodule number [3]?
A: progressively decreased
